These results are taken from publication PMC5128750, “Structure–Activity Relationship Studies Using Natural and Synthetic Okadaic Acid/Dinophysistoxin Toxins” (Marine Drugs, 2016).

Values joined by “and” are separate entries in the source; they are usually repeats but may differ in a detail not shown here. Identical values can stand only once. Like-named read-outs stand apart in the source and are kept apart here.

In data set [1] the test system is Jurkat T lymphocyte cells. Description: cells. Format: cell-based, human.
Data set [2] addresses T1, PP2A (Homo sapiens, UniProt P67775).
T1 construct: purified PP2A (EMD Millipore Corporation, Darmstadt, Germany, cat. #14-111; human red blood cells); purchased EMD Millipore Corporation 14-111; host or cells: human red blood cells (tissue-purified)
Description: biochemical. The data set is classed as biochemical.

Data set [3] concerns PP1. The data set is classed as biochemical, rabbit.
In data set [4] the test system is PP2a. The conditions noted are these: relative to OA, using data from Aune et al. and Takai et al.; cited from earlier work.
Data set [5] relates to mice. The conditions noted are these: relative to OA, cited from earlier work; for TEF (European Food Safety Authority): based on LD50 values from exposed mice.
Data set [6] has as its target T2, PP5 (Homo sapiens, UniProt P53041).
T2 sequence (P53041 1-499): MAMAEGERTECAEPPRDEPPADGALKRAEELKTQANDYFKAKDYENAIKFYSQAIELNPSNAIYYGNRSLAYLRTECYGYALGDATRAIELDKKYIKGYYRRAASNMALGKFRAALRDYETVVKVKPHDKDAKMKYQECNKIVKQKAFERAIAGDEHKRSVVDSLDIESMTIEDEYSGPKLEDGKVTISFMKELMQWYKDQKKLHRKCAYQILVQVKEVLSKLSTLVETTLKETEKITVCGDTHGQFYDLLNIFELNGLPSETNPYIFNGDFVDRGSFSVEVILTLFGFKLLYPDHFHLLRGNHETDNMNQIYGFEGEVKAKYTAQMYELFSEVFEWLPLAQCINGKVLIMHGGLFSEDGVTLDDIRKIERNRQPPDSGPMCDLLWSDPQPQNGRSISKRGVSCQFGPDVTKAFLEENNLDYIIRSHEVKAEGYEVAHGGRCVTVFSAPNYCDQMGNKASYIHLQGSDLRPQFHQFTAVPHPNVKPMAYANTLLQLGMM
Description: PP5 inhibition, fluorimetric DiFMUP assay. The data set is classed as biochemical. The arrangement: purchased EMD Millipore Corporation 14-778; host or cells: E. coli. The conditions noted are these: for IC50: PP5, DiFMUP 50 μM; for Rel. Potency / TEF: PP5, relative to OA. How it is done:
Figure 3 Effect of various DSP toxins on protein phosphatase activity. The activities of protein phosphatases (A) PP2a, (B) PP1, and (C) PP5 were assessed in the presence of various concentrations of natural OA, natural DTX1, natural DTX2, synthetic DTX2, or synthetic 2-epi-DTX2. All data (mean ± SE; n = 3 or 4) were normalized to the control. […], variable slope, non-linear dose-response analysis was performed and IC50 and 95% confidence interval values were calculated (Table 2).
Preliminary studies were conducted by Millipore (EMD Millipore Corporation, Darmstadt, Germany) using their PhosphataseProfiler that assessed the activities of 21 human and yeast phosphatases in the presence of DTX2. Phosphatase sensitivities to DTX2 were more extensively characterized using 96-well fluorescence-based assays in the presence of various natural and synthetic OA/DTXs. Briefly, the assay tests the ability of toxins to inhibit the activity of purified PP2A (EMD Millipore Corporation, Darmstadt, Germany, cat. #14-111; human red blood cells), purified PP1 (EMD Millipore Corporation, Darmstadt, Germany, cat. #14-110; rabbit skeletal muscle), or purified PP5 (EMD Millipore Corporation, Darmstadt, Germany, cat. #14-778; recombinant enzyme expressed in E. coli cells) against the fluorimetric substrate, 6,8-difluro-4-methyl umbelliferyl phosphate (DiFMUP; 50 μM final) (Invitrogen ThermoFisher Scientific, Waltham, MA, USA, cat. #D6567). DiFMUP solutions were preincubated with toxins or vehicle controls (all containing 1% DMSO final) for 10 min prior to addition of one of the PP enzymes (0.4, 0.4, and 0.02 units/well for PP2a, PP1, and PP5). PP2a assays were performed in Tris-HCl (40 mM, pH 8.4), MgCl2 (34 mM), EDTA (4 mM), and DTT (4 mM), PP1 assays were performed in Tris-HCl (100 mM, pH 7.5), MnCl2 (0.5 mM), EDTA (0.2 mM), DTT (4 mM) and BSA (0.4 mg/mL), and PP5 assays were performed in HEPES (57 mM, pH 7.2), NaCl (150 mM), EDTA (1 mM), MnCl2 (1 mM), DTT (0.167 mM), glycerol (0.83%), BSA (0.167 mg/mL), Brij-35 (0.002%) (EMD Millipore Corporation, Darmstadt, Germany, pers. comm.). All reactions (50 μL) were performed in black, 96-well, half area plates (Corning Incorporated, Corning, NY, USA) for 2 h at 35 °C with 5 s orbital shaking (ca. 600 rpm) just prior to each reading (every 2 min). PP activity was determined by measuring the fluorescence (excitation 360 nm, emission 470 nm) of each well using a fluorometric plate reader (Fluostar, BMG Lab Technologies, Ortenberg, Germany). All data (mean ± SE, n ≥ 3) are presented as normalized percentages relative to vehicle controls (100%). IC50 determinations were calculated using four-parameter, variable slope, non-linear regression analysis (GraphPad Prism, ver. 5.0c, San Diego, CA, USA).

The target of data set [7] is T3, PP1α (Homo sapiens, UniProt P62136).
T3 construct: purchased EMD Millipore Corporation (PhosphataseProfiler service)
The data set is classed as biochemical. The conditions noted are these: 200 nM, n = 2.

The target of data set [8] is T1, PP2A. The data set is classed as biochemical. The conditions noted are these: 200 nM, n = 2.
Data set [9] deals with CD45, DUSP22, HePTP, LMPTP-A, LMPTP-B, MKP5, PTPMEG1, PTP-MEG2, PTP-1B, PTPN22, PTPβ, RPTPμ, SHP-1, SHP-2, TCPTP, TMDP, VHR, YopH. Format: biochemical, human and yeast. The conditions noted are these: 200 nM, n = 2.
The target in data set [10] is T2, PP5. Format: biochemical. Details: purchased EMD Millipore Corporation (PhosphataseProfiler service). The conditions noted are these: 200 nM, n = 2.

T1 sequence (P30153 2-589): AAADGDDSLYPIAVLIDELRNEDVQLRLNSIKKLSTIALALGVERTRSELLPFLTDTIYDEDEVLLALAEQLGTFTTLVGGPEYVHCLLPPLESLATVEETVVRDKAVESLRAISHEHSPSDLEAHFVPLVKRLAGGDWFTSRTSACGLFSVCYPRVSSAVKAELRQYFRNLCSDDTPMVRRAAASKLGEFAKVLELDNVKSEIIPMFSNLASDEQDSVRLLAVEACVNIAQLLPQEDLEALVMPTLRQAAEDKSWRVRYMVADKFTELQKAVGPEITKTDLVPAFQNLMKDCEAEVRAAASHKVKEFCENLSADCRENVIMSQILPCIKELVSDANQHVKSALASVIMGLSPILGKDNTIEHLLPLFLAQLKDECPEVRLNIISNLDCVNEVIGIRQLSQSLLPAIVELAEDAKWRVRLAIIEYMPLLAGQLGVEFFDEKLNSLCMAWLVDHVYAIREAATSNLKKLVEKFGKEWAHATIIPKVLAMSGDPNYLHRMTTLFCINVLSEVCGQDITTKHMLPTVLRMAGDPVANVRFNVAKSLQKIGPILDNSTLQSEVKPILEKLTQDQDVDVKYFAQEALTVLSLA
T1 sequence (P67775 whole entry): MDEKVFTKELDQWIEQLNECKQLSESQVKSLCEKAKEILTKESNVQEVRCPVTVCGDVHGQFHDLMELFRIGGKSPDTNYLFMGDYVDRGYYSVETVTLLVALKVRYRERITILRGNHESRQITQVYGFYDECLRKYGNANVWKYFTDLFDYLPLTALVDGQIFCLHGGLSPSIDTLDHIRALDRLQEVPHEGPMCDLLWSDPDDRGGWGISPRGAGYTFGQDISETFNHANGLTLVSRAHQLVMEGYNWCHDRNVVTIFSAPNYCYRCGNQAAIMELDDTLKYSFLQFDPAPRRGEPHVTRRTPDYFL
T3 sequence (P62136 whole entry): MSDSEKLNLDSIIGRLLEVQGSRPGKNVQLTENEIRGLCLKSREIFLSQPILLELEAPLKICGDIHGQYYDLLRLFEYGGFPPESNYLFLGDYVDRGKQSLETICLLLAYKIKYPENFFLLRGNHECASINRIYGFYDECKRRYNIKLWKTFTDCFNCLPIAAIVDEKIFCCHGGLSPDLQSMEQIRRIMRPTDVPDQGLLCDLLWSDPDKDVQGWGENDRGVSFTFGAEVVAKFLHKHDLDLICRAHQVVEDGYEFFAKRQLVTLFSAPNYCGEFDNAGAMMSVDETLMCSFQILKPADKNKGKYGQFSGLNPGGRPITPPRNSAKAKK

On to `C=C1C(O)C2OC3(CCC(C=CC(C)C4CC(C)=CC5(OC(CC(C)(O)C(=O)O)CCC5O)O4)O3)CCC2OC1C(O)CC(C)C1OC2(CCC1C)OCCCC2C` (centres unmarked) [nat. DTX1, Dinophysistoxin-1], for which the “Rel. Potency (as per 48 h Data) / TEF” value in data set [1] is 0.9 and 0.87. Also, the EC50 (usually the concentration that produces a half-maximal response) in [1] (Homo sapiens, Jurkat, 24 h) is 24.6 nM; in data set [1] (Homo sapiens, Jurkat, 48 h), 22.2 nM; in [1] (Homo sapiens, Jurkat, 72 h), 11.4 nM. The IC50 (as a rule, the midpoint of a concentration-inhibition curve) in data set [2] is 0.31 nM and 0.306 nM; in data set [3] it was 34.8 nM; in data set [6], 1.3 nM. Besides, the “Rel. Potency / TEF” value in data set [2] is 1.5 and 1.523; in [3], 0.72 and 0.724; in data set [6], 1.8 and 1.769. For the same compound, the “TEF by Huhn et al.” value in data set [4] was 1.58. Further, in data set [5], the “TEF (European Food Safety Authority)” value was 1.
For the compound `C=C1C(O)C2OC3(CCC(C=CC(C)C4CC(C)=CC5(OC(CC(C)(O)C(=O)O)CCC5O)O4)O3)CCC2OC1C(O)CC(C)C1CCCC2(OCCCC2C)O1` (centres unmarked) [nat. DTX2, Dinophysistoxin-2], in data set [1], the “Rel. Potency (as per 48 h Data) / TEF” value was 1.6 and 1.58. Further, the IC50 in data set [2] is 0.99 nM and 0.987 nM; in data set [3], 76.4 nM; in data set [6], 5.2 nM and 5.25 nM. Also, the “Rel. Potency / TEF” value in data set [2] was 0.472; in data set [3], 0.330; in [6], 0.438. Besides, the “Inhibition of phosphatase activity” value in data set [7] is “inhibited”; in data set [8], “inhibited”; in data set [9] it was “only PP1α, PP2a, and PP5 were inhibited”; in data set [10] it was “inhibited”. Moreover, the “TEF by Huhn et al.” value in data set [4] is 0.48. In data set [5], the “TEF (European Food Safety Authority)” value is listed as 0.6. Further, the “TEF proposed by Aune et al.” value in data set [5] was 0.6.
Turning to `C=C1[C@@H](O)[C@@H]2O[C@]3(CC[C@H](/C=C/[C@@H](C)[C@@H]4CC(C)=C[C@@]5(O[C@H](C[C@@](C)(O)C(=O)O)CC[C@H]5O)O4)O3)CC[C@H]2O[C@@H]1[C@@H](O)C[C@H](C)[C@H]1O[C@@]2(CCCCO2)CC[C@H]1C` [nat. OA, Okadaic Acid], the “Rel. Potency (as per 48 h Data) / TEF” value in data set [1] amounted to 1.000. Moreover, the EC50 in data set [1] (Homo sapiens, Jurkat, 24 h) stood at 32.8 nM; in data set [1] (Homo sapiens, Jurkat, 48 h), 19.5 nM; in data set [1] (Homo sapiens, Jurkat, 72 h) it was 9.16 nM. The “Rel. Potency / TEF” value in data set [2], in data set [3] and in [6] was 1.000 throughout. The IC50 was 0.47 nM and 0.466 nM in [2] (IC50); 25.2 nM in data set [3]; 2.3 nM in data set [6]. The “TEF (European Food Safety Authority)” value in data set [5] is 1.
For the compound `C=C1C(O)C2OC3(CCC(C=CC(C)C4CC(C)=CC5(OC(CC(C)(O)C(=O)O)CCC5O)O4)O3)CCC2OC1C(O)CC(C)C1CCCC2(OCCCC2C)O1` (stereo not drawn) [syn. 2-epi-DTX2, 2-epi-dinophysistoxin-2], in data set [1], the EC50 is 4750 nM and 4260 nM and 3740 nM; the “Rel. Potency (as per 48 h Data) / TEF” value was 0.004. For the same compound, in [2], it took 137 nM to reach half-maximal inhibition (IC50) and the “Rel. Potency / TEF” value is 0.003. For the same compound, in [3], 3110 nM corresponded to half-maximal inhibition (IC50) and the “Rel. Potency / TEF” value is 0.008. In addition, in data set [6], the IC50 is 541 nM and the “Rel. Potency / TEF” value was found to be 0.004.
Consider `C=C1C(O)C2OC3(CCC(C=CC(C)C4CC(C)=CC5(OC(CC(C)(O)C(=O)O)CCC5O)O4)O3)CCC2OC1C(O)CC(C)C1CCCC2(OCCCC2C)O1` (stereo not drawn) [syn. DTX2, Dinophysistoxin-2], for which, in [1], the EC50 is 21.8 nM and 18.2 nM and 15.4 nM; the “Rel. Potency (as per 48 h Data) / TEF” value was 1.1 and 1.07. Besides, in [2], the IC50 came out at 1.35 nM and the “Rel. Potency / TEF” value came out at 0.345. Besides, in [3], the IC50 was 82.6 nM and the “Rel. Potency / TEF” value was 0.305. In [6], the IC50 was 4 nM and 3.95 nM; the “Rel. Potency / TEF” value is reported as 0.582.
